In patent US12460215B2, “Bacillus expression system” (WILLIAM MARSH RICE UNIVERSITY, priority 2018, dated 2025):

Experiments:
[1] = system: LacI lactose operon repressor (SEQ ID NO 11), Phy-spank system (sfgfp reporter); test: IPTG dose response of the Phy-spank inducible promoter system (steady state transfer function, sfGFP fluorescence by flow cytometry); assay type: cell-based, B. subtilis PY79; conditions: Hill function fit
Excerpt: (§1) FIG. 1E sfGFP Fluorescence from LacI-T7 and Phy-spank as a function of IPTG concentration.
Phy-spank is a variant of the IPTG-inducible promoter Pspac optimized for higher expression and dynamic range, and is perhaps the most widely used B. subtilis inducible promoter system. We constructed a second B. subtilis strain wherein sfgfp* was expressed under the control of Phy-spank, RiboJ, and RBS MF001 to compare its performance to that of LacI-T7.
Next, we measured the steady state transfer function of both systems by growing the corresponding strains under different concentrations of IPTG. In both cases, sfGFP fluorescence increases as a function of IPTG concentration in a manner well-approximated by a Hill function (FIG. 1E). […]
(§2) The sfGFP fluorescence distribution of each culture was measured using a BD FACScan flow cytometer with an excitation source of 488 nm and an emission window of 510/21 nm. […] A suspension of calibration beads (Spherotech® RCP-30-5A) in PBS was measured with each experiment. […]
(§3) Cell populations were gated by forward scatter/side scatter density (not shown) retaining 50% of the total number of events. Next, fluorescence of each gated event in arbitrary units was converted into standardized MEFL values using the calibration bead data. […] Numerical sfGFP fluorescence values of every sample and replicate can be found in Table 1.

[2] = system: LacI lactose operon repressor (SEQ ID NO 11), LacI-T7 system (Phy-spank-T7 RNAP / PT7lac, sfgfp reporter); test: IPTG dose response of the LacI-T7 inducible promoter system (steady state transfer function, sfGFP fluorescence by flow cytometry); assay type: cell-based, B. subtilis PY79; conditions: Hill function fit
Excerpt: as §1
Next, we measured the steady state transfer function of both systems by growing the corresponding strains under different concentrations of IPTG. In both cases, sfGFP fluorescence increases as a function of IPTG concentration in a manner well-approximated by a Hill function (FIG. 1E).
For each experiment, an overnight LB culture was started from the freezer stock of each relevant strain. The next day, saturated cultures (OD600˜3) were diluted 10^5-fold in M9. […]
as §2
as §3, with “data. The total cellular fluorescence of each culture sample was then obtained by calculating the median MEFL fluorescence of all gated events in that sample.” for “data.”

[3] = Bacillus subtilis, IPTG detection threshold, sfGFP fluorescence, read-out: 50% activation concentration
[4] = sfGFP fluorescence as a function of IPTG concentration

CC(C)S[C@@H]1O[C@H](CO)[C@H](O)[C@H](O)[C@H]1O [IPTG, Isopropyl β-D-1-thiogalactopyranoside]
EC50 [1, 3]: 50.2 ± 1.5 µM | Hill coefficient [1, 4]: 2.120±0.033 | EC50 [2, 3]: 54.1 ± 1.6 µM | Hill coefficient [2, 4]: 3.377±0.051
